Results from ChEMBL document CHEMBL5154869, “Discovery of 4-((E)-3,5-dimethoxy-2-((E)-2-nitrovinyl)styryl)aniline derivatives as potent and orally active NLRP3 inflammasome inhibitors for colitis” (Eur J Med Chem, 2022).
Active and inactive are the calls of the source. No cut-off for these calls is given here.

Key:
[1] = Cytotoxicity against human L02 cells assessed as reduction in cell viability incubated for 24 hrs by MTT assay; type: toxicity, cell-based
[2] = molecular target: NACHT, LRR and PYD domains-containing protein 3 (Mus musculus) (UniProt Q8R4B8); experiment: (§1) Inhibition of NLRP3 inflammasome activation in LPS/nigericin-treated C57BL/6 mouse bone marrow-derived macrophages assessed as reduction in IL-1beta secretion preincubated for 3 hrs with LPS and for 30 mins with compound prior to nigericin addition and measured after 30 mins by ELISA; type: cell-based; conditions: BMDM, time 60.0 min, DDE = dose-dependent effect
[3] = molecular target: NACHT, LRR and PYD domains-containing protein 3 (Mus musculus, UniProt Q8R4B8); experiment: as §1; type: cell-based, BMDM
[4] = Metabolic stability in human liver microsomes assessed as half life by LC-MS/MS analysis; type: ADME, Microsome
[5] = Metabolic stability in human liver microsomes assessed as intrinsic clearance by LC-MS/MS analysis; type: ADME, Microsome; conditions: read-out: CLH
[6] = Metabolic stability in human hepatocytes assessed as intrinsic clearance by LC-MS/MS analysis; type: ADME, cell-based, Hepatocyte; conditions: read-out: CLH
[7] = molecular target: NACHT, LRR and PYD domains-containing protein 3 (Mus musculus) (UniProt Q8R4B8); experiment: Inhibition of NLRP3 inflammasome activation in LPS-stimulated mouse J774.A1 cells assessed as reduction in pyroptosis pretreated for 4 hrs with LPS and for 30 mins with compound prior to ATP addition and measured after 30 mins by PI/Hoechst33342 staining based analysis; type: cell-based; conditions: dose 2.5-10 µM, time 60.0 min, DDE = dose-dependent effect
[8] = molecular target: NACHT, LRR and PYD domains-containing protein 3 (Mus musculus) (UniProt Q8R4B8); experiment: Inhibition of NLRP3 inflammasome activation in LPS/nigericin-treated C57BL/6 mouse bone marrow-derived macrophages assessed as reduction in activated caspase 1(P20) level in culture supernatants preincubated for 3 hrs with LPS and for 30 mins with compound prior to nigericin addition and measured after 30 mins by Western blot analysis; type: cell-based; conditions: BMDM, dose 0.5-2 µM, time 60.0 min, DDE = dose-dependent effect
[9] = molecular target: NACHT, LRR and PYD domains-containing protein 3 (Mus musculus) (UniProt Q8R4B8); experiment: Inhibition of NLRP3 inflammasome activation in LPS/nigericin-treated C57BL/6 mouse bone marrow-derived macrophages assessed as reduction in activated caspase 1(P20) level in cell lysates at 0.5 to 2 uM preincubated for 3 hrs with LPS and for 30 mins with compound prior to nigericin addition and measured after 30 mins by Western blot analysis; conditions: BMDM, dose 0.5-2 µM, time 60.0 min, DDE = dose-dependent effect
[10] = molecular target: NACHT, LRR and PYD domains-containing protein 3 (Mus musculus) (UniProt Q8R4B8); experiment: Inhibition of NLRP3 inflammasome activation in LPS/nigericin-treated C57BL/6 mouse bone marrow-derived macrophages assessed as inhibition of ASC oligomerization preincubated for 3 hrs with LPS and for 30 mins with compound prior to nigericin addition and measured after 30 mins by Western blot analysis; type: cell-based; conditions: BMDM, dose 0.5-2 µM, time 60.0 min, DDE = dose-dependent effect
[11] = molecular target: NACHT, LRR and PYD domains-containing protein 3 (Mus musculus) (UniProt Q8R4B8); experiment: Inhibition of NLRP3 inflammasome activation in LPS/nigericin-treated C57BL/6 mouse bone marrow-derived macrophages assessed as reduction in NEK7-NLRP3 protein-protein interaction at 2 to 4 uM preincubated for 3 hrs with LPS and for 30 mins with compound prior to nigericin addition and measured after 30 mins by immunoprecipitation method; type: cell-based; conditions: BMDM, dose 2-4 µM, time 60.0 min
[12] = molecular target: NACHT, LRR and PYD domains-containing protein 3 (Mus musculus) (UniProt Q8R4B8); experiment: Inhibition of NLRP3 inflammasome activation in LPS/nigericin-treated C57BL/6 mouse bone marrow-derived macrophages assessed as reduction in ASC-NLRP3 protein-protein interaction at 2 to 4 uM preincubated for 3 hrs with LPS and for 30 mins with compound prior to nigericin addition and measured after 30 mins by immunoprecipitation method; type: cell-based; conditions: BMDM, dose 2-4 µM, time 60.0 min
[13] = molecular target: NACHT, LRR and PYD domains-containing protein 3 (Homo sapiens, UniProt Q96P20); experiment: Binding affinity to GFP-fused NLRP3 (unknown origin) expressed in HEK293T cells by MST assay; type: cell-based
[14] = molecular target: NACHT, LRR and PYD domains-containing protein 3 (Mus musculus) (UniProt Q8R4B8); experiment: Binding affinity to NLRP3 in mouse J774.A1 cell lysates assessed as reduction in protein degradation at 50 uM incubated at 48 to 78 degC by CETSA; type: subcellular
Mus musculus [15] = experiment: Anti-colitis activity against DSS-induced colitis C57BL/6 mouse model assessed as reduction in colon shortening at 10 to 20 mg/kg, po administered once a day; type: functional, organism-based; conditions: dose 10-20 mg/kg
Mus musculus [16] = experiment: Anti-colitis activity against DSS-induced colitis C57BL/6 mouse model assessed as reduction in pathological index score of colon at 10 to 20 mg/kg, po administered once a day and measured on day 8 by H and E staining based analysis; type: functional, organism-based; conditions: dose 10-20 mg/kg, time 8.0 day
Mus musculus [17] = experiment: Anti-colitis activity against DSS-induced colitis C57BL/6 mouse model assessed as reduction in IL-6 level in colon at 10 to 20 mg/kg, po administered once a day and measured on day 8 by ELISA; type: functional, organism-based; conditions: dose 10-20 mg/kg, time 8.0 day
Mus musculus [18] = experiment: Anti-colitis activity against DSS-induced colitis C57BL/6 mouse model assessed as reduction in IL-1 beta level in colon at 10 to 20 mg/kg, po administered once a day and measured on day 8 by ELISA; type: functional, organism-based; conditions: dose 10-20 mg/kg, time 8.0 day
[19] = molecular target: NACHT, LRR and PYD domains-containing protein 3 (Mus musculus) (UniProt Q8R4B8); experiment: Inhibition of NLRP3 inflammasome activation in LPS/nigericin-treated C57BL/6 mouse bone marrow-derived macrophages assessed as reduction in cleaved IL-1 beta level in culture supernatants preincubated for 3 hrs with LPS and for 30 mins with compound prior to nigericin addition and measured after 30 mins by Western blot analysis; type: cell-based; conditions: BMDM, dose 0.5-2 µM, time 60.0 min, DDE = dose-dependent effect
[20] = molecular target: NACHT, LRR and PYD domains-containing protein 3 (Mus musculus) (UniProt Q8R4B8); experiment: Inhibition of NLRP3 inflammasome activation in LPS/ATP-treated C57BL/6 mouse bone marrow-derived macrophages assessed as reduction in cleaved IL-1 beta level in culture supernatants preincubated for 3 hrs with LPS and for 30 mins with compound prior to ATP addition and measured after 30 mins by Western blot analysis; type: cell-based; conditions: BMDM, time 60.0 min
[21] = molecular target: NACHT, LRR and PYD domains-containing protein 3 (Mus musculus) (UniProt Q8R4B8); experiment: Inhibition of NLRP3 inflammasome activation in LPS/ATP-treated C57BL/6 mouse bone marrow-derived macrophages assessed as reduction in activated caspase 1(P20) level in culture supernatants preincubated for 3 hrs with LPS and for 30 mins with compound prior to ATP addition and measured after 30 mins by Western blot analysis; type: cell-based; conditions: BMDM, time 60.0 min
[22] = molecular target: NACHT, LRR and PYD domains-containing protein 3 (Mus musculus) (UniProt Q8R4B8); experiment: Inhibition of NLRP3 inflammasome activation in LPS/ATP-treated C57BL/6 mouse bone marrow-derived macrophages assessed as reduction in IL-1beta secretion preincubated for 3 hrs with LPS and for 30 mins with compound prior to ATP addition and measured after 30 mins by ELISA; type: cell-based; conditions: BMDM, time 60.0 min
[23] = molecular target: NACHT, LRR and PYD domains-containing protein 3 (Mus musculus) (UniProt Q8R4B8); experiment: Inhibition of NLRP3 inflammasome activation in LPS/MSU-treated C57BL/6 mouse bone marrow-derived macrophages assessed as reduction in cleaved IL-1 beta level in culture supernatants preincubated for 3 hrs with LPS and for 30 mins with compound prior to MSU addition and measured after 30 mins by Western blot analysis; type: cell-based; conditions: BMDM, time 60.0 min
[24] = molecular target: NACHT, LRR and PYD domains-containing protein 3 (Mus musculus) (UniProt Q8R4B8); experiment: Inhibition of NLRP3 inflammasome activation in LPS/MSU-treated C57BL/6 mouse bone marrow-derived macrophages assessed as reduction in IL-1beta secretion preincubated for 3 hrs with LPS and for 30 mins with compound prior to MSU addition and measured after 30 mins by ELISA; type: cell-based; conditions: BMDM, time 60.0 min
[25] = Inhibition of LPS/nigericin-induced reactive oxygen species production in C57BL/6 mouse bone marrow-derived macrophages assessed as ROS level at 2 uM by DCFH-DA staining based flow cytometry (reference value: 33.51%); type: functional, BMDM; design: scale not given: the % may be the effect or the level left
Mus musculus [26] = experiment: Anti-colitis activity against DSS-induced colitis C57BL/6 mouse model assessed as reduction in disease activity index administered po once a day; type: functional, organism-based; conditions: dose 10-20 mg/kg, DDE = dose-dependent effect
Mus musculus [27] = experiment: Anti-colitis activity against DSS-induced colitis C57BL/6 mouse model assessed as reduction in decrease of goblet cells in colon at 10 to 20 mg/kg, po administered once a day and measured on day 8 by H and E staining based analysis; type: functional, organism-based; conditions: dose 10-20 mg/kg, time 8.0 day

Sequence of NACHT, LRR and PYD domains-containing protein 3 (Mus musculus) (Q8R4B8 whole entry, the tested form may be a part): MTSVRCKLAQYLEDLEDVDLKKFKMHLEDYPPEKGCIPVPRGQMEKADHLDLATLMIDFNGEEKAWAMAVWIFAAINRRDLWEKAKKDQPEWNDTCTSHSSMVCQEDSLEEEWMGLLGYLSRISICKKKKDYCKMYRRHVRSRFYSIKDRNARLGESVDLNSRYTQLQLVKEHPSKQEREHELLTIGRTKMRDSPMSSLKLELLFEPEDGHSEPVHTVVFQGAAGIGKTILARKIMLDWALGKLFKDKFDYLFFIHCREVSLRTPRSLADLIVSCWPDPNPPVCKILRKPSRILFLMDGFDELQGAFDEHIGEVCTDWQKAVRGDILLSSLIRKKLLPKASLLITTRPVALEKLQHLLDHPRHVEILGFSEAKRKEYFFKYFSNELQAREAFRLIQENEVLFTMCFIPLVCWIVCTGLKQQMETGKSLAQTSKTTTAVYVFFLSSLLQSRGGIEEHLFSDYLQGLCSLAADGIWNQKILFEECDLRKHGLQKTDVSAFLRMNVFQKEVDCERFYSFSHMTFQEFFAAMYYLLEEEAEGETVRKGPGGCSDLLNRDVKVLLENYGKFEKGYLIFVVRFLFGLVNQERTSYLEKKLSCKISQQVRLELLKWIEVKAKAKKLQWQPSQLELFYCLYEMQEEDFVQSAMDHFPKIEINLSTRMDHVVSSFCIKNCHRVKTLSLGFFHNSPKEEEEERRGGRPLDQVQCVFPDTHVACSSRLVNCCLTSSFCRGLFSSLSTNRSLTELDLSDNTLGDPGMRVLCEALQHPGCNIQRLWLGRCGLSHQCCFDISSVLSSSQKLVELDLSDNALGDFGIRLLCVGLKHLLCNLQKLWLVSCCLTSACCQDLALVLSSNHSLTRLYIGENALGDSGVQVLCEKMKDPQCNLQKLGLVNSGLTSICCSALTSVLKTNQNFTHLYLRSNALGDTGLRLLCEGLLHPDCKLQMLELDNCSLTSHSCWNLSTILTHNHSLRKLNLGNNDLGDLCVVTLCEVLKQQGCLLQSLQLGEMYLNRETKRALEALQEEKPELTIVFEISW
Sequence of NACHT, LRR and PYD domains-containing protein 3 (Mus musculus, UniProt Q8R4B8) (Q8R4B8 whole entry, the tested form may be a part): as above
Sequence of NACHT, LRR and PYD domains-containing protein 3 (Homo sapiens, UniProt Q96P20) (Q96P20 whole entry, the tested form may be a part): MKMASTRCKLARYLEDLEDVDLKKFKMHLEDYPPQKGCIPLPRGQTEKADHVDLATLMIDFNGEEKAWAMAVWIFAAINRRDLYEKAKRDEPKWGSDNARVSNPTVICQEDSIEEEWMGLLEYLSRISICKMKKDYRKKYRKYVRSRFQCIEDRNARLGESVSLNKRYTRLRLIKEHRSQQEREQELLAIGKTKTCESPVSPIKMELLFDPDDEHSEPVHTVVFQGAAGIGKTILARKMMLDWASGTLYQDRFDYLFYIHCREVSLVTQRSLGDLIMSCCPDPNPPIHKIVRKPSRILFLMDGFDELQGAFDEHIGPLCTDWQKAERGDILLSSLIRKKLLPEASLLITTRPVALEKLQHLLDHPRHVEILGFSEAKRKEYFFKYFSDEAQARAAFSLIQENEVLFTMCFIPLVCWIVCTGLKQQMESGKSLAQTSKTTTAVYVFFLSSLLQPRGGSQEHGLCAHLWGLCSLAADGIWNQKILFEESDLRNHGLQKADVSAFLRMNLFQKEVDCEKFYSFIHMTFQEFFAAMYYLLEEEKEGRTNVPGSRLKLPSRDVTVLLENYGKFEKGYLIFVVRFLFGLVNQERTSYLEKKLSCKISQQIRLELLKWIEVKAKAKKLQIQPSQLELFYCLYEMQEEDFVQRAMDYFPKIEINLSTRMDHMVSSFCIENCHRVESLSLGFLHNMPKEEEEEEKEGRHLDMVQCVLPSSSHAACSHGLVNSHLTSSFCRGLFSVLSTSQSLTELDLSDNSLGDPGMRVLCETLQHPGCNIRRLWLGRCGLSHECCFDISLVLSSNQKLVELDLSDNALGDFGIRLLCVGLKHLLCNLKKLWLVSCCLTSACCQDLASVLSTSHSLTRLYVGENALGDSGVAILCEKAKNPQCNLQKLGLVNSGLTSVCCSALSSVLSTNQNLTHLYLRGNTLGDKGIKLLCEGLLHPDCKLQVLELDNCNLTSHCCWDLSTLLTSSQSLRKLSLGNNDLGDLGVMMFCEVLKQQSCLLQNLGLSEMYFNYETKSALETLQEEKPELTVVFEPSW

Question: For `COc1cc(/C=C/c2ccc(NC(=O)c3ccco3)cc2)c(/C=C/[N+](=O)[O-])c(OC)c1`, which IC50 at 24 h [1] is on record?
Answer: The IC50 at 24 h was greater than 100000 nM.

Question: And the inhibition [2]?
Answer: The inhibition was “Dde”.

Question: And the IC50 [3]?
Answer: The IC50 was 1230 nM.

Question: What about the half-life [4] of the same compound?
Answer: Its half-life is 2.31 h.

Question: And the microsomal CLint [5]?
Answer: Its microsomal CLint is 10 µL/min/mg.

Question: And the CLint scaled [6]?
Answer: The CLint scaled was 7.4 mL/min/kg.

Question: And the inhibition [7]?
Answer: The inhibition was “Dde”.

Question: What about the inhibition [8] of the same compound?
Answer: The inhibition was “Dde”.

Question: And the inhibition [9]?
Answer: Its inhibition is “Dde”.

Question: What about the inhibition [10] of the same compound?
Answer: The inhibition was “Dde”.

Question: What about the inhibition [11] of the same compound?
Answer: Its inhibition is “Active”.

Question: What about the inhibition [12] of the same compound?
Answer: The inhibition was “Active”.

Question: And the Kd [13]?
Answer: Its Kd is 213 nM.

Question: What about the inhibition [14] of the same compound?
Answer: The inhibition was “Active”.

Question: What about the Activity (Mus musculus [15]) of the same compound?
Answer: Its Activity is “Active”.

Question: What about the Activity (Mus musculus [16]) of the same compound?
Answer: Its Activity is “Active”.

Question: What about the Activity (Mus musculus [17]) of the same compound?
Answer: The Activity was “Active”.

Question: What about the Activity (Mus musculus [18]) of the same compound?
Answer: Its Activity is “Active”.

Question: What about the inhibition [19] of the same compound?
Answer: Its inhibition is “Dde”.

Question: What about the inhibition [20] of the same compound?
Answer: Its inhibition is “Active”.

Question: What about the inhibition [21] of the same compound?
Answer: The inhibition was “Active”.

Question: And the inhibition [22]?
Answer: Its inhibition is “Active”.

Question: What about the inhibition [23] of the same compound?
Answer: Its inhibition is “Active”.

Question: And the inhibition [24]?
Answer: The inhibition was “Active”.

Question: And the Activity [25]?
Answer: The Activity was 29.79%.

Question: What about the Activity (Mus musculus [26]) of the same compound?
Answer: Its Activity is “Dde”.

Question: What about the Activity (Mus musculus [27]) of the same compound?
Answer: Its Activity is “Active”.
